Test results as given in patent US7713994B2 (Wyeth LLC, priority 2005, dated 2010).

Tests used:
cyclin B/CDK1 enzyme = molecular target: T1, cyclin B/CDK1 enzyme (Homo sapiens, UniProt P06493); test: CDK1 ELISA kinase assay (phospho-Rb ser 795 detection); format: biochemical; settings: In Vitro Enzyme Assays, read-out: CDK1 IC50
T1 construct: purchased New England BioLabs; host or cells: Sf9 insect cells, recombinant baculovirus
Summary of the method: (§1)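 ELISA format: plate-bound GST-Rb, 200 μM ATP, Sf9 cyclin/CDK enzyme, 1 h at 30° C; then anti-pRb Ser795 primary overnight at 4° C, HRP secondary, TMB. IC50 after no-substrate background subtraction.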

HCT-116 = test: Cytotoxicity assay (SRB), HCT-116; format: cell-based; settings: Homo sapiens, HCT-116, 72 h, HCT116 cells, SRB, three days; read-out: In Vitro Cellular Activity IC50 HCT116
Summary of the method: (§2)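 Growth inhibition, SRB method: 3-day continuous compound exposure for HCT-116, LoVo and MCF-7 and 6-day exposure for BT474. Absorbance at 540 nm reflects surviving cell protein relative to controls.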

BT474 = test: Cytotoxicity assay (SRB), BT474; format: cell-based; settings: Homo sapiens, BT-474, 144 h, BT474 cells, SRB, 6 days; read-out: In Vitro Cellular Activity IC50 BT474
Summary of the method: as §2

cyclin D1/cdk 4 enzyme = molecular target: T2, cyclin D1/cdk 4 enzyme (Homo sapiens, UniProt P11802); test: CDK4 ELISA kinase assay (phospho-Rb ser 795 detection); format: biochemical; settings: In Vitro Enzyme Assays, 200 μM ATP, read-out: CDK4 IC50
T2 construct: made in house; host or cells: Sf9 insect cells, recombinant baculovirus
Summary of the method: as §1

MCF-7 = test: Cytotoxicity assay (SRB), MCF-7; format: cell-based; settings: Homo sapiens, MCF7, 72 h, MCF-7 cells, SRB, three days; read-out: In Vitro Cellular Activity IC50 MCF-7
Summary of the method: as §2

LoVo = test: Cytotoxicity assay (SRB), LoVo; format: cell-based; settings: Homo sapiens, LoVo, 72 h, LoVo cells, SRB, three days; read-out: In Vitro Cellular Activity IC50 LOVO
Summary of the method: as §2

T1 sequence (P06493 whole entry): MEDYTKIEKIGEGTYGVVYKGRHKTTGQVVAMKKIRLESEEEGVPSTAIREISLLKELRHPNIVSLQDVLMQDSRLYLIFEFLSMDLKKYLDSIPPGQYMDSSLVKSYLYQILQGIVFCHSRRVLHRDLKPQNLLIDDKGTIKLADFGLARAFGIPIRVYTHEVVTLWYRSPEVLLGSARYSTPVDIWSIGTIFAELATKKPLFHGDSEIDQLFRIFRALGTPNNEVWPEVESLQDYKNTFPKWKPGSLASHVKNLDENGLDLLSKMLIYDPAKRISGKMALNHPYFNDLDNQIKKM
T1 sequence (P14635 whole entry partner): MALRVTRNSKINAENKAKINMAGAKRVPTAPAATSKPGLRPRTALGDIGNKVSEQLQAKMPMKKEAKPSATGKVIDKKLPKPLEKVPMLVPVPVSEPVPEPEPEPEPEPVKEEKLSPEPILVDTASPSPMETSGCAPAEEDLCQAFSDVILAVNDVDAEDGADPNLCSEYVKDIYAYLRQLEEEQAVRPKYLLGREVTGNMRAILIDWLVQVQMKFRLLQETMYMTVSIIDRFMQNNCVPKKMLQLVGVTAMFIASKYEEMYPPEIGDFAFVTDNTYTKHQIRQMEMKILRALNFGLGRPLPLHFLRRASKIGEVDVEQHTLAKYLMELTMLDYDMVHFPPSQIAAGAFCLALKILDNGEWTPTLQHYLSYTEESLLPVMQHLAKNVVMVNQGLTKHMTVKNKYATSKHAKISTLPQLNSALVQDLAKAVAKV
T2 sequence (P11802 whole entry, species assumed): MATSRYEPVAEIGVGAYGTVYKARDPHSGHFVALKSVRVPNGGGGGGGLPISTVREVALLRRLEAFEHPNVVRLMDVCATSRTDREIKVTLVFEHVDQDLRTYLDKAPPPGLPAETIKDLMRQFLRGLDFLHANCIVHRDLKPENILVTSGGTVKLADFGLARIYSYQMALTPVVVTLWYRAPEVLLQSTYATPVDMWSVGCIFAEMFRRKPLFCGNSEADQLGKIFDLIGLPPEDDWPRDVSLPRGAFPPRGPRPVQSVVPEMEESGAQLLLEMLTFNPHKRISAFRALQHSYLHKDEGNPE
T2 sequence (P24385 whole entry partner, species assumed): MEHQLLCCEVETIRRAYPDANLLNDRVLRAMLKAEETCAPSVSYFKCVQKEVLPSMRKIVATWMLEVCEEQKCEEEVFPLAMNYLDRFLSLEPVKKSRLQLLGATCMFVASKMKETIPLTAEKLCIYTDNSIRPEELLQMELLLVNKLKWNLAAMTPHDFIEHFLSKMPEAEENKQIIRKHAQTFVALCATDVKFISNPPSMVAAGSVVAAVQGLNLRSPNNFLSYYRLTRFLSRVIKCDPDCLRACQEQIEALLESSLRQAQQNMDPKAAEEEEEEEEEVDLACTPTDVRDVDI

Compound	IC50 (cyclin B/CDK1 enzyme)	IC50 (HCT-116)	IC50 (BT474)	IC50 (cyclin D1/cdk 4 enzyme)	melting point	IC50 (MCF-7)	IC50 (LoVo)
CN(C)C(=O)c1ccc2c(c1)/C(=C/Nc1ccc(CN3CCCCC3)cc1)C(=O)NC2=O [Example 66, (4Z)-N,N-Dimethyl-1,3-dioxo-4-({[4-(piperidinylmethyl)phenyl]amino}methylene)-1,2,3,4-tetrahydroisoquinoline-6-carboxamide]	> 50 µM	3.4 µM	3.1 µM	21200 nM	266 to 267 °C (dec.)	4.3 µM	4.2 µM
O=C1NC(=O)c2ccc(-c3ccc(F)cc3)cc2/C1=C/Nc1ccc(CN2CCCCC2)cc1 [Example 251, (4Z)-6-(4-Fluorophenyl)-4-({[4-(piperidin-1-′ylmethyl)phenyl]amino}methylene)isoquinoline-1,3(2H,4H)-dione]	> 50 µM	1 µM	1.1 µM	310 nM	195 to 196 °C	0.55 µM	1.7 µM
CN1CCN(c2ccc(N/C=C3\C(=O)NC(=O)c4ccc(-c5ccoc5)cc43)cn2)CC1 [Example 249, (4Z)-6-(3-Furyl)-4-({[6-(4-methylpiperazin-1-yl)pyridin-3-′yl]amino}methylene)isoquinoline-1,3(2H,4H)-dione]	> 50 µM		2 µM		200 to 201 °C		2.4 µM
O=C1NC(=O)c2ccccc2/C1=C/NCc1cccc(O)c1 [Example 63]	> 50 µM	> 50 µM	49 µM	780 nM	261 to 262 °C	> 50 µM	> 50 µM
CC(=O)Oc1ccc(CN/C=C2\C(=O)NC(=O)c3ccccc32)cc1OC(C)=O [Example 47, 2-(Acetyloxy)-4-({[(Z)-(1,3-dioxo-2,3-dihydroisoquinolin-4(1H)-ylidene)methyl]amino}-methyl)phenyl acetate]	> 50 µM	21 µM		1100 nM	184 to 186 °C	20 µM	22 µM
COc1ccc2c(c1)C(=CNc1ccc(CN3CCCCC3)cc1)C(=O)NC2=O [Example 91, 6-Methoxy-4-[(4-piperidin-1-ylmethyl-phenylamino)-methylene]-4H-isoquinoline-1,3-dione]	> 50 µM	27 µM	40 µM	2000 nM	272 to 275 °C (dec.)	16 µM	37 µM
O=C1NC(=O)c2ccccc2/C1=C/NCc1ccc(O)cc1 [Example 61]	37.2 µM	27.6 µM	> 50 µM	> 50000 nM	272 to 273 °C	> 50 µM	> 50 µM
O=C1NC(=O)c2ccc(-c3ccoc3)cc2/C1=C/Nc1ccc(CN2CCCCC2)cc1 [Example 93]	> 50 µM		1 µM	37 nM	204 to 205 °C		1.8 µM
O=C1NC(=O)c2ccc(-c3ccccc3)cc2/C1=C/Nc1ccc(CN2CCCCC2)cc1 [Example 95]	> 50 µM		3 µM		214 to 215 °C		3.7 µM
O=C1NC(=O)c2ccc(-c3cccnc3)cc2/C1=C/Nc1ccc(CN2CCCCC2)cc1 [Example 102]	> 50 µM	11.5 µM	> 50 µM	130 nM	247 to 248 °C	> 50 µM	43.3 µM
O=C1NC(=O)c2ccc(N3CCOCC3)cc2/C1=C/Nc1ccc(CN2CCCCC2)cc1 [Example 120, (4Z)-6-Morpholin-4-yl-4-({[4-(piperidin-1-ylmethyl)phenyl]amino}methylene)isoquinoline-1,3(2H,4H)-dione]	> 50 µM	4.3 µM	8 µM	920 nM	216 to 217 °C	21 µM	7.7 µM
